The values below come from patent US11730720B2, “ALK5 inhibitors” (THERAVANCE BIOPHARMA R&D IP, LLC, priority 2018, dated 2023).

Bounds are passed on as bounds.

The subject of assay [1] is TGF-β-stimulated SMAD3 phosphorylation in BEAS-2B cells. Kind of assay: Cellular ALK5 potency assay, inhibition of TGF-β stimulated pSMAD3 formation in BEAS-2B cells. Particulars: Homo sapiens, inhibition of TGF-β (10 ng/mL) stimulated pSMAD3 formation, 1 hour compound incubation, read-out: BEAS2B pIC50 (converted). Type of assay: cell-based. As to the method:
Example 255: Cellular ALK5 Potency Assay to Measure pIC50, Inhibition of TGF-β Stimulated pSMAD3 Formation in BEAS-2B Cells
The potency of compounds of the present disclosure for inhibition of TGF-β-stimulated SMAD3 phosphorylation was measured in BEAS-2B cells, a human lung epithelial cell line. TGF-β signals through activin receptor-like kinase 5 (ALK5) immediately prior to SMAD3 phosphorylation.
BEAS-2B cells were grown using 50% DMEM (Life Technologies) and 50% F-12 (Life Technologies) media, supplemented with 10% Fetal Bovine Serum (ATCC), 25 mM HEPES (Life Technologies), and 1×Pen-Strep (Life Technologies). Cells were cultured in a humidified incubator set at 37° C., 5% CO2, and trypsonized using 0.25% Trypsin with 0.5% polyvinylpyrrolidone (PVP).
For the assay, BEAS-2B cells were seeded at 7,500 cells/well (25 μL/well) in a 384-well plate and cultured overnight. Before dosing, growth media was aspirated and the wells were rinsed with HBSS Buffer (HBSS with Calcium and Magnesium, Life Technologies) supplemented with 25 mM HEPES (Life Technologies) and 1% Bovine Serum Albumin (Roche). Compounds were serially diluted in DMSO, then further diluted with supplemented HBSS Buffer (50 μL/well) to create a compound plate 3× of the final assay concentration, at 0.3% DMSO. The diluted compounds were then added to the cells (8 μL/well) and incubated at 37° C., 5% CO2 for 1 hour. After the compound incubation, TGF-β (R&D Systems) reconstituted in supplemented HBSS Buffer was added to the cells ([…], final concentration 10 ng/mL) and incubated for a further 30 minutes, after which the cells were immediately lysed with AlphaLISA lysis buffer (PerkinElmer). AlphaLISA Acceptor and Detector beads (PerkinElmer) were added 2 hours apart, then incubated overnight to be read the next day. The potency of the compound was determined through analysis of dose-dependent quantified changes in pSMAD3 signal from baseline (non-compound treated TGF-β stimulated cells). Data are expressed as pIC50 (negative decadic logarithm IC50) values.

The target of assay [2] is T1, recombinant human ALK5 (TGF-βR1) protein (Homo sapiens, UniProt P36897).
T1 construct: purchased Life Technologies PR9075A
T1 sequence (P36897 34-503): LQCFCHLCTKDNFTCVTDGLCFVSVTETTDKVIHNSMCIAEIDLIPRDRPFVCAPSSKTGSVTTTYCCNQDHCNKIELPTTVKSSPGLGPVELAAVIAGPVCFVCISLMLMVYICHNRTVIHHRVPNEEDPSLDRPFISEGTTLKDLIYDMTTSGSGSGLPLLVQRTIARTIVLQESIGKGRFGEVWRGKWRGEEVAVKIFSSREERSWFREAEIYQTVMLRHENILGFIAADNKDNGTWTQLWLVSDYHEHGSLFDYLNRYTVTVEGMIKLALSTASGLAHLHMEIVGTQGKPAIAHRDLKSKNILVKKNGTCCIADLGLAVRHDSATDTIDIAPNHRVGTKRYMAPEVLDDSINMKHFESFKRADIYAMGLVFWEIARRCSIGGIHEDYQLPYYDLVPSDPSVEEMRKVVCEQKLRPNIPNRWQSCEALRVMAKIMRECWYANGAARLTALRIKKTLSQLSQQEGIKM
Kind of assay: Biochemical ALK5 (TGF-βR1) assay to measure pKi (LANCE Ultra ULight kinase assay). Conditions: apparent pKi, converted from pIC50 using the Cheng-Prusoff equation. As to the method: Example 254: Biochemical ALK5 (TGF-βR1) Assay to Measure pKi
The assays were performed in a 384-well plate (24 columns×16 wells/rows). An Echo® 550 Liquid Handler (Labcyte) was used to prepare various intermediate concentrations of compounds of the present disclosure in 100% DMSO. From the intermediate concentrations, a range of concentrations (from 10 μM to 25 pM corresponding to volumes up to 105 nL) were prepared and ejected into a final assay plate to be used to create individual dose response curves for each of the subject compounds. To a separate column within the assay plate, 105 nL of DMSO in each well was used to establish a maximum assay signal. Additionally, 105 nL of 100 μM SD-208, a selective TGF-βR1 inhibitor (Catalog #S7624, Selleck Chemicals), was used in another column of wells to establish a minimal assay signal.
With a multidrop dispenser, 8 μL of enzyme mixture (1.25× final) was added to each well. The enzyme mixture consisted of 250 pM ALK5 enzyme and 62.5 nM peptide substrate (LANCE® (lanthanide chelate excite) Ultra ULight™-DNA Topoisomerase 2-alpha (Thr1342)) prepared in assay buffer (50 mM HEPES, 10 mM MgCl2, 1 mM EGTA, 0.01% Tween-20, pH 7.5 at room temperature) with 2 mM DTT added prior to use. The plate was then sealed with an adhesive seal and allowed to equilibrate for 60 minutes at room temperature.
Next, 2 μL of 125 μM ATP (5× final, 125 μM ATP prepared in assay buffer with 2 mM DTT) was added to the incubated mixtures, covered with a MicroClime® Environmental Lid (Product No. LLS-0310, Labcyte) and immediately transferred to 37° C. The reactions were allowed to proceed at 37° C. for 60 minutes before terminating with the addition of 10 μL of detection antibody (LANCE® (lanthanide chelate excite) Ultra Europium-anti-phospo-DNA Topoisomerase 2-alpha (Thr1342)) in detection mixture (12 mM EDTA, 4 nM detection antibody prepared in detection buffer (50 mM Tris-HCl, 150 mM NaCl, 0.5% BSA (Fraction V), pH 7.0)) at room temperature. The plate was then read on a Perkin Elmer EnVision Plate Reader using europium specific reader settings with excitation and emission wavelengths set to 320 or 340 nm and 665 nm, respectively.
For dose-response analyses, percent inhibition versus compound concentrations were plotted, and pIC50 values were determined from a 4-parameter robust fit model with GraphPad Prism V5 Software (GraphPad Software, Inc., La Jolla, Calif.). This model obtains pIC50 values by fitting the sigmodial dose-response (variable slope) equation to the data. Results were expressed as pIC50 (negative logarithm of IC50) and subsequently converted to pKi (negative logarithm of dissociate constant, K) using the Cheng-Prusoff equation.
The higher the value of pKi (lower value of Ki), the greater the inhibition of ALK5 activity.

Regarding `COCc1cccc(-c2n[nH]cc2-c2ccc3ncc(-c4cnn([C@H]5CCCC[C@H]5N)c4)cc3n2)c1` [Compound 14-18, (1R,2S)-2-[4-[6-[3-[3-(methoxymethyl)phenyl]-1H-pyrazol-4-yl]-1,5-naphthyridin-3-yl]pyrazol-1-yl]cyclohexanamine], in assay [1], the IC50 was 25.1 to 158 nM. Also, the Ki in assay [2] is 0.0398 to 0.316 nM.

On to `Fc1ccc(Cl)cc1-c1n[nH]cc1-c1ccc2ncc(N3CC(N4CCCCC4)C3)cc2n1` [Compound 1-40, 2-[3-(5-chloro-2-fluoro-phenyl)-1H-pyrazol-4-yl]-7-[3-(1-piperidyl)azetidin-1-yl]-1,5-naphthyridine], for which the IC50 in assay [1] is 25.1 to 158 nM. The Ki in assay [2] was 0.0398 to 0.316 nM.

In the case of `Fc1ccc(Cl)cc1-c1n[nH]cc1-c1ccc2ncc(-c3ncn4c3CNCC4)cc2n1` [Compound 1-113, 2-[3-(5-chloro-2-fluoro-phenyl)-1H-pyrazol-4-yl]-7-(5,6,7,8-tetrahydroimidazo[1,5-a]pyrazin-1-yl)-1,5-naphthyridine], in assay [1], the IC50 was 25.1 to 158 nM. Besides, the Ki in assay [2] was 0.0398 to 0.316 nM.

For `CN1CC=C(c2nc3n(n2)CCN(c2cnc4ccc(-c5c[nH]nc5-c5cc(Cl)ccc5F)nc4c2)C3)C1` [Compound 1-86, 2-(3-(5-chloro-2-fluorophenyl)-1H-pyrazol-4-yl)-7-(2-(1-methyl-2,5-dihydro-1H-pyrrol-3-yl)-5,6-dihydro-[1,2,4]triazolo[1,5-a]pyrazin-7(8H)-yl)-1,5-naphthyridine], the IC50 in assay [1] was 25.1 to 158 nM. Besides, the Ki in assay [2] was no more than 0.0316 nM.

Turning to `CC(C)NC(=O)[C@H]1CN(c2cnc3ccc(-c4c[nH]nc4-c4cc(Cl)ccc4F)nc3c2)CCN1` [Compound 1-66, (R)-4-(6-(3-(5-Chloro-2-fluorophenyl)-1H-pyrazol-4-yl)-1,5-naphthyridin-3-yl)-N-isopropylpiperazine-2-carboxamide], in assay [1], the IC50 was 25.1 to 158 nM. In addition, the Ki in assay [2] was 0.398 to 3.16 nM.

Turning to `CCN1CCC(N(C)c2cnc3ccc(-c4c[nH]nc4-c4cc(Cl)ccc4F)nc3c2)CC1` [Compound 1-38, 6-[3-(5-chloro-2-fluoro-phenyl)-1H-pyrazol-4-yl]-N-(1-ethyl-4-piperidyl)-N-methyl-1,5-naphthyridin-3-amine], the IC50 in assay [1] is 25.1 to 158 nM. Further, in assay [2], the Ki was 0.398 to 3.16 nM.

Consider `CC(C)N1CCN(CCNc2cnc3ccc(-c4nc[nH]c4-c4cc(Cl)ccc4F)cc3c2)CC1` [Compound 17-3, 6-(5-(5-chloro-2-fluorophenyl)-1H-imidazol-4-yl)-N-(2-(4-isopropylpiperazin-1-yl)ethyl)quinolin-3-amine], for which the IC50 in assay [1] is 25.1 to 158 nM. Further, the Ki in assay [2] is 0.398 to 3.16 nM.

Regarding `Fc1ccc(Cl)cc1-c1[nH]cnc1-c1ccc2ncc(N3CCn4nc(C5=CCNC5)nc4C3)cc2n1` [Compound 2-14, 2-(5-(5-chloro-2-fluorophenyl)-1H-imidazol-4-yl)-7-(2-(2,5-dihydro-1H-pyrrol-3-yl)-5,6-dihydro-[1,2,4]triazolo[1,5-a]pyrazin-7(8H)-yl)-1,5-naphthyridine], the IC50 in assay [1] was 200 to 1260 nM. The Ki in assay [2] is 0.0398 to 0.316 nM.

With `COC(=O)C1CN(CCNc2cnc3ccc(-c4c[nH]nc4-c4cc(Cl)ccc4F)nc3c2)CCN1` (stereo not shown) [Compound 1-22, methyl 4-[2-[[6-[3-(5-chloro-2-fluoro-phenyl)-1H-pyrazol-4-yl]-1,5-naphthyridin-3-yl]amino]ethyl]piperazine-2-carboxylate], the IC50 in assay [1] was 25.1 to 158 nM. Also, the Ki in assay [2] is 0.0398 to 0.316 nM.

For the compound `Fc1cc(F)c(-c2n[nH]cc2-c2ccc3ncc(-c4nnn5c4NCCC5)cc3n2)cc1Cl` [Compound 6-47, 2-[3-(5-chloro-2,4-difluoro-phenyl)-1H-pyrazol-4-yl]-7-(4,5,6,7-tetrahydrotriazolo[1,5-a]pyrimidin-3-yl)-1,5-naphthyridine], the IC50 in assay [1] is 25.1 to 158 nM. Besides, in assay [2], the Ki is 0.398 to 3.16 nM.

In the case of `CNCCn1cc(-c2cnc3ccc(-c4c(-c5cc(Cl)ccc5F)nc5ccccn45)cc3c2)cn1` [Compound 19-1, 2-(4-(6-(2-(5-chloro-2-fluorophenyl)imidazo[1,2-a]pyridin-3-yl)quinolin-3-yl)-1H-pyrazol-1-yl)-N-methylethan-1-amine], the IC50 in assay [1] was 25.1 to 158 nM. Besides, in assay [2], the Ki is 0.0398 to 0.316 nM.

Turning to `Fc1cc(F)c(-c2n[nH]cc2-c2ccc3ncc(-c4ncn5c4NCC5)cc3n2)cc1Cl` [Compound 6-55, 2-[3-(5-chloro-2,4-difluoro-phenyl)-1H-pyrazol-4-yl]-7-(2,3-dihydro-1H-imidazo[1,5-a]imidazol-7-yl)-1,5-naphthyridine], the IC50 in assay [1] was 25.1 to 158 nM. Also, the Ki in assay [2] was 0.0398 to 0.316 nM.

Turning to `Fc1cc(F)c(-c2n[nH]cc2-c2ccc3ncc(-c4cnc5n4CCCN5)cc3n2)cc1Cl` [Compound 6-60, 2-[3-(5-chloro-2,4-difluoro-phenyl)-1H-pyrazol-4-yl]-7-(5,6,7,8-tetrahydroimidazo[1,2-a]pyrimidin-3-yl)-1,5-naphthyridine], the IC50 in assay [1] is 25.1 to 158 nM. Besides, the Ki in assay [2] is 0.398 to 3.16 nM.

Regarding `Fc1ccc(Cl)cc1-c1n[nH]cc1-c1ccc2ncc(N3CCCNCC3)cc2n1` [Compound 1-63, 2-[3-(5-chloro-2-fluoro-phenyl)-1H-pyrazol-4-yl]-7-(1,4-diazepan-1-yl)-1,5-naphthyridine], the IC50 in assay [1] is 25.1 to 158 nM. Moreover, in assay [2], the Ki is 0.398 to 3.16 nM.

Take `CC(C)N1CCCN(c2cnc3ccc(-c4c[nH]nc4-c4cc(Cl)ccc4F)nc3c2)CC1C` (racemic) [Compound 1-82, 2-[3-(5-chloro-2-fluoro-phenyl)-1H-pyrazol-4-yl]-7-[rac-(3S)-4-isopropyl-3-methyl-1,4-diazepan-1-yl]-1,5-naphthyridine]: the IC50 in assay [1] was 25.1 to 158 nM. Also, in assay [2], the Ki was 0.398 to 3.16 nM.

On to `CNC(=O)C1CN(c2cnc3ccc(-c4c[nH]nc4-c4cc(Cl)ccc4F)nc3c2)CCN1C` (racemic) [Compound 1-81, rac-(2S)-4-[6-[3-(5-chloro-2-fluoro-phenyl)-1H-pyrazol-4-yl]-1,5-naphthyridin-3-yl]-N,1-dimethyl-piperazine-2-carboxamide], for which, in assay [2], the Ki is 0.398 to 3.16 nM.
